The text below walks through data of patent publication US20240016734A1 (Aquestive Therapeutics, Inc., priority 2022, published 2024).

Marks after values point to notes of the source that are not given here.

Data set [1] is classed as in vitro ADME, porcine. Particulars: pig, 360 min. An excerpt:
FIG. 41B depicts a comparison of individual adrenergic receptor interacters in terms of amount permeated as a function of time.
FIG. 41C depicts ex vivo permeation as a function of time of different adrenergic receptor interacters in DESF compositions. The ex-vivo permeation in this example involved the exposure of porcine buccal tissue to formulations varying with regard to permeation enhancer(s) used and API concentration. […] Amount permeated increases with eugenol content, where eugenol contents in both test formulations were lower than that used in the control.
Ex-vivo permeation involved the exposure of porcine buccal tissue to formulations varying with regard to permeation enhancer(s) used and API concentration. […] Amount permeated increased with eugenol content, where eugenol contents in both test formulations were lower than that used in the control.

The conditions of data set [2]: in PBS (pH 7.4) at 37°±1° C., n=6; cited from earlier work.
The nature of data set [3]: Ex vivo permeation of epinephrine, Franz diffusion cell. The protocol:
A franz diffusion cell is obtained and prepared.
If testing films, one can perform the following next steps: (1) weigh films, punch to match diffusion area (or smaller), reweigh, record pre- and post-punching weight; (2) wet a donor area with approximately 100 μL of phosphate buffer; (3) place film on a donor surface, top with 400 μL of phosphate buffer, and start timers.
The tissue is dermatomed to precise thickness. • 4. […] The media is selected to ensure sink conditions. • 5.

The conditions of data set [4]: modified Ussing chambers; cited from earlier work.
The conditions of data set [5]: concentration ranges explored.
Excerpt: In this example, acidic conditions were explored for the ability to promote stability.
The nature of data set [6]: AQST-109 12 mg residence time / food / swallowed film PK study. Particulars: for Cmax / AUC(0-t): AQST-109 12 mg (N = 48 doses), Epinephrine IM Injection 0.3 mg (N = 48 doses). It is filed as in vivo, human. The protocol: In this example, three different residence times were tested. The 4 minute residence time is shown in circle data points. The 2 minute residence time is shown in downward pointing triangle data points. The 0 minute residence time is shown in upward pointing triangle data points.
The purpose of this investigation was to continue to study the administration of the film under a variety of conditions and further characterize its pharmacokinetics, pharmacodynamics, and safety. The final two arms of the study were designed to assess the impact of (1) administering the film sublingually two minutes after consuming food—in this case, a peanut butter sandwich, and (2) swallowing the film whole immediately with 240 mL of water. The control arm used for reference was the optimized sublingual film administration with a four-minute residence time.

Data set [7] can be described thus: AQST-109 single and repeat dose PK vs EpiPen and 0.3 mg IM (AQ109201). It counts as in vivo, human. As to conditions: for AUC(0-t) / Cmax / Tmax: human, plasma, intramuscular, 0.3 mg. The protocol:
Referring to FIG. 35, the study was a controlled study in healthy volunteers. […] However, the need and use of a second dose can be quite rare. […] Within this context, a post hoc analysis was performed.

A short description of data set [8]: AQ109201 safety, adverse events. It is filed as in vivo, human.
A short description of data set [9]: Pilot PK study of auto-injectors vs 0.3 mg manual IM injection. As to conditions: human, plasma, intramuscular, 27 healthy subjects, crossover. It counts as in vivo.
The nature of data set [10]: in vivo. The protocol:
The study compared various dose routes: sublingual (SL), per oral tablet (PO), subcutaneous (SC) and intravenous (IV). […] An Oral Irritation assessment was performed (SL film group): Predose (0) and 24 hr postdose by Draize scoring.

[11] abbreviates: single dose: 12 mg, 0.3 mg, EpiPen.

In the case of `Cc1ccc(C(C)(C)O)cc1` [cherry propanol, 2-(4-methylphenyl)propan-2-ol], in [1], the amount permeated fell in the range of 0 to 50 µg.
On to `CC(C)NCC(O)COc1cccc2ccccc12` (stereo not shown) [PP], for which the “C0 of saturated solution” value in data set [2] was 588.005 ± 5.852 ng/mL.
Turning to `C=CCc1ccc(O)c(OC)c1` [0.3% Eugenol], the “Permeability Coefficient” value in data set [3] was found to be 4.14 ×10⁻⁶ cm/s.
Molecule `OCc1ccccc1` [benzyl alcohol] yielded an amount permeated in [1] of 50 to 100 µg.
As to `Cn1c(=O)c2c(ncn2C)n(C)c1=O` [caffeine], in data set [4], the “permeability through buccal epithelium compared with full thickness buccal tissue” value is 1.8 fold.
Turning to `C=CCc1ccc(O)c(OC)c1` [eugenol], in [1], the amount permeated was in the range of 50 to 275 µg.
Regarding `CNC[C@H](O)c1ccc(O)c(O)c1` [Epinephrine Bitartrate], in data set [3], the “permeation as a function of solution pH” value is on record as “slightly favorable”. The Theoretical enhancement in data set [3] (8 mg/mL) came out at 2; in data set [3] (16 mg/mL) it was 4; in data set [3] (100 mg/mL), 25. In addition, the average amount permeated in [3] (30 min, 16 mg/mL) stood at 0; in data set [3] (45 min, 16 mg/mL), 2.5; in data set [3] (60 min, 16 mg/mL), 5.5; in data set [3] (120 min, 16 mg/mL), 31.33; in data set [3] (180 min, 8 mg/0.500 mL), 72.67; in [3] (240 min, 16 mg/mL) it was 112.2. Further, the average amount permeated in data set [3] (300 min, 16 mg/mL) was found to be 160.2; in data set [3] (360 min, 16 mg/mL), 213.3. Further, the average flux in [3] (30 min, 16 mg/mL) worked out at 0 μg/cm^2 * min; in data set [3] (45 min, 16 mg/mL), 0.2604 μg/cm^2 * min; in data set [3] (60 min, 16 mg/mL), 0.3125 μg/cm^2 * min; in [3] (120 min, 16 mg/mL) it was 0.6727 μg/cm^2 * min; in data set [3] (180 min, 8 mg/mL), 1.076 μg/cm^2 * min; in data set [3] (240 min, 16 mg/mL) it was 1.029 μg/cm^2 * min. The average flux is 1.25 μg/cm^2 * min in data set [3] (300 min, 16 mg/mL) and 1.385 μg/cm^2 * min in data set [3] (360 min, 16 mg/mL). Further, the “Average Steady State Flux” value in data set [3] (360 min, 4 mg/mL) came to 0.167 ug/cm^2*min; in [3] (360 min, 8 mg/mL), 0.466 ug/cm^2*min; in data set [3] (360 min, 100 mg/mL), 2.942 ug/cm^2*min. Moreover, the “steady state flux average” value in data set [3] (360 min, 16 mg/mL) came to 1.317. For the same molecule, in data set [5], the “inherent pH in solution” value is reported as 4.5-5.
As for `C=CCc1ccc(O)c(OC)c1` [3% Eugenol], the “Permeability Coefficient” value in data set [3] was 7.43 ×10⁻⁶ cm/s.
On to `CNC[C@H](O)c1ccc(O)c(O)c1` [Epinephrine Base], for which the “Average Steady State Flux” value in data set [3] (conc 4.4 mg/mL, solubilized in situ) is 0.512 ug/cm^2*min.
For `CNC[C@H](O)c1ccc(O)c(O)c1` [Epinephrine IM Injection, epinephrine], in data set [6] (AQST-109 at 4-minute residence, 0.3 mg IM injection), the “median time to reach 100 pg/mL” value was found to be 10 min. Further, the Cmax came out at 0.397 ng/mL in data set [6] (human, plasma, im, 0.3 mg, read-out: Arithmetic Mean Cmax); 0.351 ng/mL in [6] (human, plasma, im, 0.3 mg, read-out: Geometric Cmax); 0.755 ng/mL in data set [7] (Repeat Dose (10 min), geometric mean, read-out: Cmax); 0.489 ng/mL in [7] (after one dose, read-out: maximum concentration, CMax); 0.911 ng/mL in data set [7] (after two doses, second dose ten minutes after the first, read-out: maximum concentration, CMax); 0.344 ng/mL in data set [9] (read-out: geometric mean Cmax). Also, the AUC(0-t) was 0.023 ng·h/mL in [6] (human, plasma, im, 0.3 mg, AUC 0-20 minutes); 0.0475 ng·h/mL in [6] (human, plasma, im, 0.3 mg, AUC 0-30 minutes); 0.067 ng·h/mL in data set [7] (AUC 0-30 min, Repeat Dose (10 min)); 0.181 ng·h/mL in data set [7] (Repeat Dose (10 min), read-out: AUC0-45 min); 1.3 ng·h/mL in data set [7] (Repeat Dose (10 min), read-out: AUC 0-t). Besides, the Tmax in data set [6] (human, plasma, im, 0.3 mg, read-out: median time to maximum concentration (Tmax) (converted)) is 50 min; in [7] (Repeat Dose (10 min), read-out: Tmax (median) (converted)) it was 50 min; in data set [7] (Repeat Dose (10 min), read-out: Tmax Range), 30 to 70 min; in data set [7] (single dose administration, read-out: Tmax (median) (converted)), 45 min; in data set [9] (read-out: median Tmax (converted)) it was 50 min. The “time after second dose administration until impact on PK profile” value in [7] (repeat dosing) is recorded as “over 20 min”. Moreover, the Cardiac disorders in [8] (repeat dose: 24 mg (N = 23), 0.6 mg (N = 23)) was 1 (4.3) n (%); in [8] (single dose: 12 mg (N = 23), 0.3 mg (N = 23), EpiPen (N = 22)), 1 (4.3) n (%). For the same molecule, the Palpitations in data set [8] (repeat dose: 24 mg, 0.6 mg) is reported as 1 (4.3) n (%); in [8] (setting [11]) it was 1 (4.3) n (%). The Ventricular extrasystoles is reported as 1 (4.3) n (%) in data set [8] (repeat dose: 24 mg, 0.6 mg) and 0 n (%) in data set [8] (setting [11]).
For `CNC[C@H](O)c1ccc(OC(=O)C(C)(C)C)c(OC(=O)C(C)(C)C)c1` (racemic) [Dipi Solution, dipivefrin], in [10], the “% Boiavailability (DIPI AUC0-t)” value came to 128.5% and the “% Boiavailability (EPI AUC0-t)” value was 131.0%. Moreover, the “time until cleared from the system” value in data set [10] (iv) was no more than 2 h. For the same molecule, in data set [10] (iv, 1 mg), the AUC(0-t) is 0.887 ng·h/mL, the Cmax was 11.7 ng/mL and the “EPI Cmax (mean)” value was determined as 7.62 ng/mL. In addition, in [10] (po, 6 mg), the “DIPI AUC0-t” value was determined as 0, the “EPI Cmax (mean)” value was determined as 0.28 ng/mL, the “EPI Tmax” value turned out to be 120 min and the Tmax came out at 0 min. Also, in data set [10] (sc, 22 mg), the AUC(0-t) is 25.1 ng·h/mL, the Cmax came out at 15 ng/mL, the “EPI Cmax (mean)” value stood at 12.5 ng/mL and the “EPI Tmax” value was found to be 180 min. Moreover, the Tmax in data set [10] (sc, 22 mg) was 5 min.
Take `C=CCc1ccc(O)c(OC)c1` [100% Eugenol]: in data set [3], the “Permeability Coefficient” value turned out to be 38.4 ×10⁻⁶ cm/s.
